Measurements as given in patent US20110039873A1, “SUBSTITUTED PYRAZOLO[1,5-a] PYRIDINE COMPOUNDS HAVING MULTI-TARGET ACTIVITY” (priority 2009, published 2011).
Where two headings read alike, the source gives them in different places.

Key:
[1] = molecular target: T1, recombinant human phosphodiesterase 10A1 enzyme (Homo sapiens, UniProt Q9Y233); experiment: PDE10 inhibition assay (PDELight); format: biochemical; settings: for IC50: 1 uM cAMP, read-out: PDE 10 Inhibition (IC50 in μM); for PDE-10 inhibition (in words): Table 2
T1 construct: purchased BPS Biosciences; host or cells: Baculovirus infected Sf9 cells
Procedure: In a 96-well plate, recombinant human phosphodiesterase 10A1 enzyme (10 U/well) expressed in Baculovirus infected Sf9 cells (BPS Biosciences) was combined with 1 uM cAMP substrate (Sigma). […] Using a PDELight® kit (Cambrex), the amount of AMP produced in the reaction from the hydrolysis of cAMP was quantified using PDELight AMP Detection Reagent which converts the AMP directly to ATP. The assay uses luciferase, which catalyses the formation of light from the newly formed ATP and luciferin. The luminescence was read on a Victor Light 1420 luminometer. IC50 calculations were plotted using a nonlinear regression curve fit.

[2] = molecular target: T2, catalytic domain of phosphodiesterase 4B enzyme cloned from human brain (Homo sapiens, UniProt Q07343); experiment: PDE4 inhibition assay (PDELight); format: biochemical; settings: for IC50: 5 uM cAMP, read-out: PDE 4 Inhibition (IC50 in μM)
T2 construct: the catalytic domain of phosphodiesterase 4B enzyme; purchased Scottish Biomedical
Procedure: In a 96-well plate, the catalytic domain of phosphodiesterase 4B enzyme (40 mU/well) cloned from human brain (Scottish Biomedical) was combined with 5 uM cAMP substrate (Sigma). […] Using a PDELight® kit (Cambrex), the amount of AMP produced in the reaction from the hydrolysis of cAMP was quantified using PDELight AMP Detection Reagent which converts the AMP directly to ATP. The assay uses luciferase, which catalyses the formation of light from the newly formed ATP and luciferin. […] IC50 calculations were plotted using a nonlinear regression curve fit.

[3] = molecular target: T3, recombinant full length human JNK3 enzyme (Homo sapiens, UniProt P53779); experiment: JNK 3 inhibition assay (ATP depletion, luciferase); format: biochemical; settings: for IC50: 10 uM ATP, ATF2 substrate
T3 construct: recombinant full length human JNK2 or JNK3 enzyme; purchased Upstate; host or cells: Sf21 cells
Procedure: In a 96-well plate, recombinant full length human JNK2 or JNK3 enzyme (40 ng) expressed in Sf21 cells (Upstate) was incubated with the substrate ATF2 (3 uM) for 1 hour in the presence of 10 uM ATP. […] The ATP levels were quantified using luciferase with luminescence read on a Victor Light 1420 luminometer. IC50 calculations were plotted using a nonlinear regression curve fit.

[4] = tested on: rat chronic constriction injury (CCI) model of neuropathic pain; experiment: Rat chronic constriction injury (CCI) model of neuropathic pain; format: in vivo; settings: IP, dose not given; 50% paw withdrawal threshold, von Frey
Procedure: To induce allodynia, male Sprague-Dawley rats underwent chronic constriction injury (CCI) to the sciatic nerve as described by Bennett and Xie, Pain 1988; 33(1):87-107. The plantar surface of the hind paws was stimulated with von Frey filaments (Stoelting) to induce a withdrawal response by blinded personnel. The bending force of fiber required to induce a 50% withdrawal response was calculated following CCI surgery (pre-dosing baseline). N=5-6 allodynic rats received a single IP or oral administration of test compounds or vehicle. Two hours post-dosing, 50% paw withdrawal threshold was determined again by blinded testers using von Frey filaments. The 50% withdrawal threshold prior to CCI surgery, pre-dosing (10 days post-surgery), and 2 hours post-dosing are plotted.
For selected compounds multi-day studies were perfumed with pre-determined schedules for dosing and withdrawal threshold assessments.

[5] = molecular target: T4, recombinant full length human JNK2 enzyme (Homo sapiens, UniProt P45984); experiment: JNK 2 inhibition assay (ATP depletion, luciferase); format: biochemical; settings: 10 uM ATP, ATF2 substrate; read-out: JNK 2 Inhibition (IC50 in μM)
T4 construct: recombinant full length human JNK2 or JNK3 enzyme; purchased Upstate; host or cells: Sf21 cells
Procedure: In a 96-well plate, recombinant full length human JNK2 or JNK3 enzyme (40 ng) expressed in Sf21 cells (Upstate) was incubated with the substrate ATF2 (3 uM) for 1 hour in the presence of 10 uM ATP. […] IC50 calculations were plotted using a nonlinear regression curve fit.

[6] = tested on: Mouse BV-2 microglial cells; experiment: BV-2 glial cell assay (TNF-α and MCP-1 by Luminex); format: cell-based; settings: Mus musculus, BV-2, LPS and IFN-γ activated, 20 hours
Procedure: Mouse BV-2 microglial cells were seeded on 96-well plates at a concentration of 3×10^4 cells/well. Cells were activated with 100 ng/mL LPS and IFN-γ (100 ng/mL) in the presence or absence of test compounds (0-30 uM). Following incubation for 20 hours, cells were spun down and supernatant collected. The supernatant was analyzed via Luminex for the presence of TNF-α and MCP-1.

T1 sequence (Q9Y233 1-779 isoform Q9Y233-1): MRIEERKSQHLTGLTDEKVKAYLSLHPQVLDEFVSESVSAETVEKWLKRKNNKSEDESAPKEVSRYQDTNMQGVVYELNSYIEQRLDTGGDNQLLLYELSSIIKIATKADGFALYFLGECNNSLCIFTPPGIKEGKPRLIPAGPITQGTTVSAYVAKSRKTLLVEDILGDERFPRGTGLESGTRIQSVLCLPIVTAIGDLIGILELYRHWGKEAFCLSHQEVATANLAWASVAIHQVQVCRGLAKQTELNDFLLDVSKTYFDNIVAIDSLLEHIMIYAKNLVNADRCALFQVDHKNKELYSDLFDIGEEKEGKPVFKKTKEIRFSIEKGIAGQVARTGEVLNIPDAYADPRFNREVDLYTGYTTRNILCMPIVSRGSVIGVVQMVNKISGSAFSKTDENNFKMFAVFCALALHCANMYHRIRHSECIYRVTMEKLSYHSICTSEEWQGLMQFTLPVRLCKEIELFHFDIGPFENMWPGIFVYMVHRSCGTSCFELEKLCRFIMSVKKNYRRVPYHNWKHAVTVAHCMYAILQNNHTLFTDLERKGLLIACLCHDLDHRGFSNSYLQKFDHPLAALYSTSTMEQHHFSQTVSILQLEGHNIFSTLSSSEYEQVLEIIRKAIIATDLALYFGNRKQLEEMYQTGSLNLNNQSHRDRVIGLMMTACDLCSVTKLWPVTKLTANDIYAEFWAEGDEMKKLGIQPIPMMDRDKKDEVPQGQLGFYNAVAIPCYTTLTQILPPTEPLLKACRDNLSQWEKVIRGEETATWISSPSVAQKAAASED
T3 sequence (P53779 whole entry): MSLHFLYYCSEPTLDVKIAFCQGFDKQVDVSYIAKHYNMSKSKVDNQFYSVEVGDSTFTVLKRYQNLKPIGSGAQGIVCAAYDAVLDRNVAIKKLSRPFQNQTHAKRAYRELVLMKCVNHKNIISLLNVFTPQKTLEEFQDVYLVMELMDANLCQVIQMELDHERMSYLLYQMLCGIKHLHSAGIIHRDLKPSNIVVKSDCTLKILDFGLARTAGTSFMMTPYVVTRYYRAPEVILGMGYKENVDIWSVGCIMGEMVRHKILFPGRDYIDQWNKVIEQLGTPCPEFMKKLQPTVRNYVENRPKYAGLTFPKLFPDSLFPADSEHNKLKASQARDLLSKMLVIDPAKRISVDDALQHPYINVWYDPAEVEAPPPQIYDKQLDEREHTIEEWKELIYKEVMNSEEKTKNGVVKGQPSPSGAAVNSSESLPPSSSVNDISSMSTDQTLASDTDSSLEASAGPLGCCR
T2 sequence (Q07343 330-659 limits assumed): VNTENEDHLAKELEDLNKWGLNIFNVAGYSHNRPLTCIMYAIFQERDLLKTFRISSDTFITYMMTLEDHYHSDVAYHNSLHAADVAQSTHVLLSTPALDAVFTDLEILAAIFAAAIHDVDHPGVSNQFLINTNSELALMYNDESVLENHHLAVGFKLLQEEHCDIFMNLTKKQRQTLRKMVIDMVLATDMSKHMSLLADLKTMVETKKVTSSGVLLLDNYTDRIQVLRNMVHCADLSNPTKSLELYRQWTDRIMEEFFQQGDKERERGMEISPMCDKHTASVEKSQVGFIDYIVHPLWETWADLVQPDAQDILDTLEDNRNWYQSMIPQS
T4 sequence (P45984 whole entry): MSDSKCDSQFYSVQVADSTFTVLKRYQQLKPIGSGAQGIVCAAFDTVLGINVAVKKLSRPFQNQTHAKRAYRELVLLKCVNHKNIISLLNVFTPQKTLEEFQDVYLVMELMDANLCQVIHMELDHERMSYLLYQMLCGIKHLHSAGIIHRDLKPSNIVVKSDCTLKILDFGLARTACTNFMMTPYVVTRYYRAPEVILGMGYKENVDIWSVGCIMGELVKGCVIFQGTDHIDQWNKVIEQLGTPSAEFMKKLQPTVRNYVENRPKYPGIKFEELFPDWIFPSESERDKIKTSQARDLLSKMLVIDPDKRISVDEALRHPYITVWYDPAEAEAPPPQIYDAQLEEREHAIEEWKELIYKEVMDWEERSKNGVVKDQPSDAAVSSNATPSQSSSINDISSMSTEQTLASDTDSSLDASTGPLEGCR

| Compound | IC50 [1] [µM] | IC50 [2] [µM] | IC50 [3] [µM] | further results |
| --- | --- | --- | --- | --- |
| CC(C)c1nn2ccccc2c1-c1ccnc(N)c1 [AV105, 4-(-2-isopropylpyrazolo[1,5-a]pyridin-3-yl)pyridin-2-amine] | > 100 | 22 | > 100 | – |
| CC(C)c1nn2ccccc2c1-c1ccnc(NC2CCCC2)c1 [AV1021, N-cyclopentyl-4-(-2-isopropylpyrazolo[1,5-a]pyridin-3-yl)pyridin-2-amine] | 12 | > 100 | > 100 | – |
| CC(C)c1nn2ccccc2c1-c1ccnc(NCCCN2CCN(C)CC2)n1 [AV1135, 4-(2-isopropylpyrazolo[1,5-a]pyridin-3-yl)-N-(3-(4-methylpiperazin-1-yl)propyl)pyrimidin-2-amine] | 19 | > 100 | 83 | IP CCI efficacy (Change in grams) [4]: 0 grams |
| CC(C)c1nn2ccccc2c1-c1ccnc(N)n1 [AV1139, 4-(2-isopropylpyrazolo[1,5-a]pyridin-3-yl)pyrimidin-2-amine] | > 100 | > 100 | 18 | IP CCI efficacy (Change in grams) [4]: 0.21 grams |
| CCC(CC)Nc1nccc(-c2c(C(C)C)nn3ccccc23)n1 [AV1155, 4-(2-isopropylpyrazolo[1,5-a]pyridin-3-yl)-N-(pentan-3-yl)pyrimidin-2-amine] | 42 | 5.9 | 27 | PDE-4 inhibition (in words) [2]: particularly effective; IP CCI efficacy (Change in grams) [4]: 0.67 grams |
| CC(C)Nc1nccc(-c2c(C(C)(C)C)nn3ccccc23)n1 [AV1157, 4-(2-tert-butylpyrazolo[1,5-a]pyridin-3-yl)-N-isopropylpyrimidin-2-amine] | > 100 | > 100 | > 100 | – |
| CC(C)c1nn2ccccc2c1-c1ccnc(NC2CCNC2)n1 (centres unmarked) [AV1159, 4-(2-isopropylpyrazolo[1,5-a]pyridin-3-yl)-N-(pyrrolidin-3-yl)pyrimidin-2-amine] | – | – | – | IP CCI efficacy (Change in grams) [4]: 0 grams |
| CC(C)Nc1nccc(-c2c(-c3cccc(F)c3)nn3ccccc23)n1 [AV1179, 4-(2-(3-fluorophenyl)pyrazolo[1,5-a]pyridin-3-yl)-N-isopropylpyrimidin-2-amine] | > 100 | > 100 | 0.2 | JNK-3 inhibition (in words) ([3]; see Table 2): particularly effective |
| CC(C)Nc1nccc(-c2cccc3cc(C(C)C)nn23)n1 [AV1185, N-isopropyl-4-(2-isopropylpyrazolo[1,5-a]pyridin-7-yl)pyrimidin-2-amine] | > 100 | 57 | > 100 | – |
| CC(C)c1cc2cccc(-c3ccnc(NC4CCCC4)n3)n2n1 [AV1186, N-cyclopentyl-4-(2-isopropylpyrazolo[1,5-a]pyridin-7-yl)pyrimidin-2-amine] | > 100 | – | > 100 | – |
| CC(C)Nc1nccc(-c2cccc3ccnn23)n1 [AV1187, N-isopropyl-4-(pyrazolo[1,5-a]pyridin-7-yl)pyrimidin-2-amine] | > 100 | – | > 100 | – |
| c1cc(-c2ccnc(NC3CCCC3)n2)n2nccc2c1 [AV1188, N-cyclopentyl-4-(pyrazolo[1,5-a]pyridin-7-yl)pyrimidin-2-amine] | > 100 | – | > 100 | – |
| CC(C)c1nn2ccccc2c1-c1ccnc(NS(C)(=O)=O)n1 [AV1189] | > 100 | – | > 100 | – |
| CC(C)c1nn2ccccc2c1-c1ccnc(NS(=O)(=O)c2ccccc2)n1 [AV1190] | – | 40 | > 100 | – |
| Cc1nn2ccccc2c1-c1ccnc(NS(=O)(=O)c2ccsc2)n1 [AV1191] | > 100 | 6.8 | > 100 | – |
| O=S(=O)(Nc1nccc(-c2cnn3ccccc23)n1)c1ccccc1 [AV1193] | > 100 | 9.4 | 53 | – |
| CC(C)c1nn2ccccc2c1-c1ccc(N)nc1 [AV1196, 5-(2-isopropylpyrazolo[1,5-a]pyridin-3-yl)pyridin-2-amine] | 8.3 | 20.8 | 68 | PDE-10 inhibition (in words) [1]: particularly effective; PDE-4 inhibition (in words) [2]: particularly effective |
| CC(C)Nc1ccc(-c2c(C(C)C)nn3ccccc23)cn1 [AV1197, N-isopropyl-5-(2-isopropylpyrazolo[1,5-a]pyridin-3-yl)pyridin-2-amine] | 17 | 50.5 | > 100 | – |
| CC(C)c1nn2ccccc2c1-c1ccc(NC2CCCC2)nc1 [AV1199, N-cyclopentyl-5-(2-isopropylpyrazolo[1,5-a]pyridin-3-yl)pyridin-2-amine] | 7.1 | 43 | > 100 | PDE-10 inhibition (in words) [1]: particularly effective |
| CC(C)Nc1cc(-c2c(C(C)C)nn3ccccc23)ccn1 [AV1202, N-isopropyl-4-(-2-isopropylpyrazolo[1,5-a]pyridin-3-yl)pyridin-2-amine] | 13 | > 100 | > 100 | – |
| CC(C)c1nn2ccccc2c1-c1cnc(N)nc1 [AV1203, 5-(-2-isopropylpyrazolo[1,5-a]pyridin-3-yl)pyrimidin-2-amine] | 3.8 | 9.9 | > 10 | IC50 [5]: > 100 µM; EC50 ([6]; read-out: MCP-1 BV-2 (EC50 in μM)): 0.3 µM; EC50 ([6]; read-out: TNF-a BV-2 (EC50 in μM)): 0.8 µM |
| CC(C)Nc1ncc(-c2c(C(C)C)nn3ccccc23)cn1 [AV1206, N-isopropyl-5-(-2-isopropylpyrazolo[1,5-a]pyridin-3-yl)pyrimidin-2-amine] | 7.4 | 43 | > 100 | – |
| CC(C)c1nn2ccccc2c1-c1cnc(NC2CCCC2)nc1 [AV1207, N-cyclopentyl-5-(-2-isopropylpyrazolo[1,5-a]pyridin-3-yl)pyrimidin-2-amine] | 3.2 | 24 | > 100 | – |
| CC(C)c1nn2ccccc2c1-c1ccnc(N(C)C)c1 [AV1208, 4-(-2-isopropylpyrazolo[1,5-a]pyridin-3-yl)-N,N-dimethylpyridin-2-amine] | 5.4 | 3.9 | > 100 | – |
| COc1ccc(Cc2nccc3cc(OC)c(OC)cc23)cc1OC [Papaverine, reference compound] | – | – | – | IP CCI efficacy (Change in grams) [4]: 1.35 grams |
